US9505735B2, “Compounds for treating infectious diseases” (Whitehead Institute for Biomedical Research, priority 2012, dated 2016)

Assays:
[1] = tested on: S. cerevisiae strains with graded levels of Gwt1 expression; assay: Antifungal susceptibility testing of strains with graded GWT1 copy number; format: cell-based
Text: (A) Anti-fungal susceptibility testing of S. cerevisiae strains with graded levels of Gwt1 expression treated with gepinacin. Wild type diploids (Wt) or diploids with one copy of GWT1 deleted (gwt1/GWT1) were transformed with low copy (CEN) plasmids encoding GWT1 or GFP (as a control). (B) Schematic of Gwt1 protein function in cells. Glucosamine (shown as a black circle) phosphatidyl inositol (GlcN-PI) is acylated (orange zigzag) by Gwt1 to become GlcN-(acyl)PI.
Anti-fungal susceptibility testing of wild type diploids (Wt) or diploids with one copy of GWT1 deleted (gwt1Δ/GWT1) transformed with high copy (2 micron) plasmids containing GWT1 or GFP (as a control). The strains were treated with gepinacin for 48 hours and the growth was monitored by measuring the optical density at 600 nm (OD600). The results are expressed as a fraction of the OD600 measured in the absence of gepinacin.
To determine the mechanism responsible for the antifungal activity of the compound, the powerful genetic tools available in the model fungal organism S. cerevisiae were utilized. Both an arrayed haploid over-expression library and a pooled heterozygous deletion library were screened for enhancement or suppression of toxicity. […] With each strain expressing one open reading frame (ORF), this library covered approximately 90% of the yeast genome. […]

Aspergillus terreus = assay: Antifungal susceptibility testing (mold, MIC50/MIC80); format: cell-based
Procedure: Sensitivity to gepinacin was determined in 96-well, flat bottom microtiter plates using a modification of the NCCLS broth microdilution protocol CLS M27-A3 and RPMI as culture medium. Fungi were inoculated at ˜10^3 cells per ml and incubated for 48 hours at 37° C. after which plates were sealed, shaken and the optical density read at 600 nm (OD600) on a Tecan Safire 2 plate reader. All samples were run in duplicate or triplicate and assays were repeated at least once. Results are expressed as fraction of growth in the absence of compound and the mean and standard deviation are plotted. For the mold A. terreus, inoculum was 10^4 cells per ml and plates were incubated at 35° C. for 48 hours in the dark. Plates were then visually scored as specified by CLSI document M38-A2 to determine the MIC50 and MIC80.

[2] = tested on: C. albicans Sc5314 cell surface β-glucan; assay: β-Glucan staining (microscopy, flow cytometry); format: cell-based
Procedure: Overnight treatment and staining of C. albicans strain Sc5314 was performed as previously described for caspofungin treatment using YPD media at 30° C. to maintain growth in the yeast form (Wheeler, et al. (2006) PLoS Pathog 2, e35). Antibody to (1-3) β-D-glucan was obtained from Biosupplies (Australia). Cells were propidium iodide (PI) stained to assess viability and only PI-negative cells were analyzed. Microscopy was performed on a Nikon Eclipse microscope with a 100× oil objective.

[3] = tested on: unfolded protein response; assay: Unfolded protein response GFP reporter (UPRE-GFP), flow cytometry; format: cell-based, S. cerevisiae; details: 5 hours
Procedure: Induction of the unfolded protein response in cells carrying a GFP reporter construct was monitored by flow cytometry after exposure to serial dilutions of the indicated compounds for 5 hrs.
The plasmid pRS304-4XUPRE-GFP was linearized and integrated into the TRP1 locus of S. cerevisiae (W303) to construct a reporter strain as previously described (Cox, et al. (1993) Cell 73, 1197-1206; Pollard, et al. (1998) Mol Cell 1, 171-182). Reporter cells were grown to log phase and exposed to compound at 23° C. for 5 hours before analysis. GFP reporter induction was monitored on a Guava EasyCyte Plus cytometer. The average mean channel fluorescence of duplicate samples was determined, and the experiment was performed twice with similar results.

[4] = tested on: S. cerevisiae strain Sigma 1278B; assay: Filamentation on solid media; format: cell-based; details: 5 μM, 6 days
Procedure: For liquid assays, C. albicans strains were grown overnight in YPD with DMSO or 5 μM gepinacin. After dilution to an OD600 of 0.1 in Spider media, growth was continued for an additional 3 hours with agitation at 37° C. in the presence of compound before transfer to a 24 well plate for imaging (Shen, et al. (2008) Proc Natl Acad Sci USA 105, 20918-20923). Assays with S. cerevisiae strain Sigma 1278B on solid media were performed as previously described (Liu, et al. (1994) Science 266, 1723-1726) except gepinacin was added directly to partially cooled plate media and colonies were imaged after growth for 6 or 9 days at 30° C.

Compound: COc1ccc(NC(=O)COc2cccc(OCC(C)C)c2)cc1 [gepinacin]
- toxicity versus GWT1 copy number [1]: inversely correlated with GWT1 copy number
- growth inhibition (Aspergillus terreus): inhibited the growth
- increase in median channel fluorescence (β-glucan, flow cytometry) versus control [2]: 4.5 fold
- β-glucan presentation on the cell surface (immunostaining) ([2]; sub-lethal concentrations (5 μM)): dramatically increase
- activation of the unfolded protein response (GFP reporter) [3]: massive, concentration-dependent activation
- filamentation on solid media [4]: blocked filamentation
